The text below walks through data of patent US4898861A, “Method for inhibiting the proliferation of tumor cells” (Hoffmann-La Roche Inc., priority 1988, dated 1990).

The term Kd denotes the equilibrium constant for the complex coming apart.

Like-named read-outs stand apart in the source and are kept apart here.

Assay [1] has as its system DS 19 Friend erythroleukemia cell line (FEL). Put plainly: Induction of differentiation of FEL cells (hemoglobin synthesis, benzidine staining). The assay is classed as cell-based, mouse. To be noted: for EC50 / EC20 / EC10: Mus musculus, 120 h, 5 days; for EC50: read-out: ED50 (concentration required to induce 50% of the FEL cells); for EC20: read-out: ED20 (concentration required to induce 20% of the FEL cells); for EC10: read-out: ED10 (concentration required to induce 10% of the FEL cells). How it is done: A DS 19 Friend erythroleukemia cell line (FEL) was utilized as the model for studying the effects of various benzodiazepines on cellular differentiation. The Friend lines were derived from mouse (DBA/2) spleen cells infected by the Friend virus complex. The FEL cells are a widely used model system for studying differentiation. […] The protocol utilized consisted of the benzidine staining method. Cells were seeded at 1×10^4 ml and incubated with inducers in Coster Culture Clusters ([…]) for 5 days. On the 5th day, two hundred (200) μl aliquots of cells were mixed with 100 μl of 0.2% benzidine dihydrochloride in 0.5N acetic acid with 1% of 30% H2 O2. Cells that stained blue were scored in a hemacytometer as a % of total cell number.
(§1) Of twenty five (25) of the benzodiazepines tested it was observed that sixteen induced differentiation (weakly to strongly active) in a concentration-dependent manner. The concentration of each compound required to induce 50%, 20% or 10% of the FEL cells along with the half-maximal concentrations for each compound required to inhibit 50% of the binding of 7-chloro-5-(4-chlorophenyl)-1,3-dihydro-1-methyl-2H-1,4-benzodiazepine-2-one to the FEL cells (IC50) is listed in the following table: […]

Assay [2] addresses T1, peripheral-type benzodiazepine sites on FEL cells (Mus musculus, UniProt P50637).
T1 construct: endogenous in cells; host or cells: DS 19 Friend erythroleukemia cell line (FEL)
Put plainly: Inhibition of binding of 7-chloro-5-(4-chlorophenyl)-1,3-dihydro-1-methyl-2H-1,4-benzodiazepine-2-one to FEL cells.
Text: as §1

Assay [3] concerns the target T2, peripheral binding site on thymoma cells (Mus musculus, UniProt P50637).
T2 construct: host or cells: AKR mouse thymoma line BW 5147.6.1.4.Oua^r.1; (washed cells in BGS buffer)
Nature of the assay: Binding of tritiated 7-chloro-5-(4-chlorophenyl)-1,3-dihydro-1-methyl-2H-1,4-benzodiazepin-2-one to thymoma cells (saturation, association, dissociation). The method, then:
Thymoma cells, AKR mouse thymoma line, BW 5147.6.1.4.Oua^r.1.(Cell Distribution Center, Salk Institute, San Diego, Calif.), were grown in Iscove's Modified Dulbecco's Medium (IMDM) containing 5 percent fetal calf serum, collected by centrifugation at 100×g and washed in Balanced Glucose Salt (BGS) buffer, the composition of which is: KCl, 5.0 mM; NaCl, 120.0 mM; Na2 HPO4, 5.0 mM; Tris, 5.0 mM; CaCl2, 0.6 mM; MgSO4, 1.0 mM and glucose, 5.5 mM with a final pH of 7.4. Incubation and binding of tritiated 7-chloro-5-(4-chlorophenyl)-1,3-dihydro-1-methyl-2H-1,4-benzodiazepin-2-one to thymoma cells was carried out in BGS buffer at 0° C. for 40 minutes with the indicated concentrations of labeled ligand. To assay the binding, the rapid filtration method was utilized as outlined in the article of Taniguchi et al., Life Science, 27, 171-178 (1980) and 10 μM of unlabeled diazepam was used as the competitive inhibitor of binding to determine the nonspecific binding. A Saturation and Scratchard plot of the binding data using least square fit to define the regression line (r=0.97) was utilized (FIG. 1 and Insert).

In assay [4] the target is T2, peripheral binding site on thymoma cells. Nature of the assay: Inhibition of tritiated diazepam binding to thymoma cells.
Assay [5] relates to Swiss 3T3 cells. To be noted: Clarke and Ryan, Nature 287, 160-161 (1980), read-out: ED50 (inhibition of proliferation); cited from earlier work.
The mark [6] stands for this setting: FEL cells, compounds 1-12, read-out: IC50 (inhibition of binding to FEL cells).
[7] abbreviates: FEL cells, compounds 13-16, in μM, read-out: IC50 (inhibition of binding to FEL cells).
The mark [8] stands for this setting: stereoisomers, equivalent IC50's, read-out: IC50.

T1 sequence (P50637 whole entry): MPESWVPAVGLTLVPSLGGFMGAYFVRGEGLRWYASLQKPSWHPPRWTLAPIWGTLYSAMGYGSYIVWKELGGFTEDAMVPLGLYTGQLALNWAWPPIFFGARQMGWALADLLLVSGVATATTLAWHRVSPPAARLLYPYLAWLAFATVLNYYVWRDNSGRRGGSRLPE
T2 sequence (P50637 whole entry): as above

Turning to `COc1ccc(C2=NCC(=O)N(C)c3ccc(Cl)cc32)cc1` [Compound 3, 7-chloro-5-(4-methoxyphenyl)-1-methyl-3H--1,4-benzodiazepin-2-one], in assay [1], the EC50 came out at 33000 nM. Also, in assay [2] (setting [6]), the IC50 was determined as 0.015 µM.
As for `CN1C(=O)CN=C(c2ccc(Cl)cc2)c2cc(Cl)ccc21` [7-chloro-5-(4-chlorophenyl)-1,3-dihydro-1-methyl-2H-1,4-benzodiazepin-2-one], binding in assay [3] was put at a Kd of 4.4 ± 1.1 nM. Moreover, the “time of incubation to reach binding plateau” value in assay [3] (0° C.) was determined as 30 min. Further, in assay [3] (saturation plot, BGS buffer, 0° C., 40 minutes, mean±s.e., n=5), the “maximum amount of ligand bound (Bmax)” value came out at 477±98 fmoles per 10^6 cells.
Regarding `CN1C(=O)CN=C(c2ccc(Cl)cc2)c2ccccc21` [Compound 8, 5-(4-chlorophenyl)-1-methyl-3H--1,4-benzodiazepin-2(1H)--one], the EC20 in assay [1] came to 30000 nM. Further, the IC50 in assay [2] (setting [6]) amounted to 0.054 µM.
Turning to `CN1C(=O)CN=C(c2ccc(Cl)cc2)c2cc(Cl)ccc21` [Compound 10, 7-chloro-5-(4-chlorophenyl)-1,3-dihydro-1-methyl-2H--1,4-benzodiazepin-2-one], the EC20 in assay [1] was 28000 nM. Also, in assay [2] (setting [6]), the IC50 was 0.006 µM. For the same compound, in assay [4] (200 nM unlabeled compound), the “inhibition of tritiated diazepam binding” value was “completely inhibit the binding of tritiated diazepam”.
For `CN1C(=O)CN=C(c2ccc(F)cc2)c2ccccc21` [Compound 12, 1-methyl-5-(4-fluorophenyl)-3H--1,4-benzodiazepin-2(1H)--one], the EC20 in assay [1] came to 100000 nM. Moreover, the IC50 in assay [2] (setting [6]) was 0.327 µM.
Take `CN1C(=O)CN=C(c2ccc(Cl)cc2)c2cc([N+](=O)[O-])ccc21` [Compound 14, 5-(4-chlorophenyl)-1-methyl-7-nitro-3H--1,4-benzodiazepin-2(1H)--one]: in assay [1], the EC10 was found to be 60000 nM. In addition, the IC50 in assay [2] (setting [7]) was determined as 0.034 µM.
Turning to `C[C@@H]1N=C(c2ccccc2F)c2cc([N+](=O)[O-])ccc2N(C)C1=O` [Compound 1, (+)-5-(2-fluorophenyl)-1,3-dihydro-1,3-dimethyl-7-nitro-2H--1,4-benzodiazepin-2-one], in assay [1], the “induction of differentiation (in words)” value was “most potent inducer tested” and the EC50 was 9000 nM. In addition, in assay [2] (setting [6]), the IC50 stood at 1.1 µM. Moreover, the IC50 in assay [2] (setting [8]) is approximately 1 µM.
As for `CN1C(=O)CN=C(c2ccccc2F)c2cc([N+](=O)[O-])ccc21` [Compound 13, 5-(2-fluorophenyl)-1,3-dihydro-1-methyl-7-nitro-2H--1,4-benzodiazepin-2-one], in assay [1], the EC10 was determined as 32000 nM. Also, the IC50 in assay [2] (setting [7]) is 0.08 µM.
Turning to `CN1C(=O)CN=C(c2ccccc2)c2cc(Cl)ccc21` [Compound 4, diazepam, reference compound], the IC50 in assay [5] was approximately 30000 nM; in assay [2] (IC50 (inhibition of binding to FEL cells), FEL cells, compounds 1-12), 0.079 µM. Further, in assay [1], the EC50 was 55000 nM.
Regarding `CN1C(=O)CN=C(c2ccccc2Cl)c2cc(Cl)ccc21` [Compound 16, 7-chloro-5-(2-chlorophenyl)-1,3-dihydro-1-methyl-2H--1,4-benzodiazepin-2-one], in assay [1], the EC10 is 60000 nM. The IC50 in assay [2] (setting [7]) was 0.011 µM.
On to `CN1C(=O)CN=C(c2ccc(Cl)cc2)c2cc(F)ccc21` [Compound 7, 5-(4-chlorophenyl)-7-fluoro-1-methyl-3H--1,4-benzodiazepin-2(1H)--one], for which, in assay [1], the EC20 came to 34000 nM. In assay [2] (setting [6]), the IC50 came to 0.013 µM.
For `CN1C(=O)C(O)N=C(c2ccccc2)c2cc(Cl)ccc21` (stereo not drawn) [Compound 5, 7-chloro-1,3-dihydro-3-hydroxy-1-methyl-5-phenyl-2H--1,4-benzodiazepin-2-one], the EC50 in assay [1] was 80000 nM. In addition, the IC50 in assay [2] (setting [6]) was 0.236 µM.
Take `CN1C(=O)C(O)N=C(c2ccc(Cl)cc2)c2cc(Cl)ccc21` (stereo not drawn) [Compound 11, 7-chloro-5-(4-chlorophenyl)-3-hydroxy-1,3-dihydro-1-methyl-2H--1,4-benzodiazepin-2-one]: the EC20 in assay [1] came to 45000 nM. For the same compound, the IC50 in assay [2] (setting [6]) was found to be 0.02 µM.
Consider `CN1C(=O)CN=C(c2ccccc2)c2ccccc21` [Compound 6, 1,3-dihydro-1-methyl-5-phenyl-2H--1,4-benzodiazepin-2-one], for which the EC50 in assay [1] stood at 80000 nM. Further, in assay [2] (setting [6]), the IC50 amounted to 0.704 µM.
As for `C[C@H]1N=C(c2ccccc2F)c2cc([N+](=O)[O-])ccc2N(C)C1=O` [Compound 9, (-)-5-(2-fluorophenyl)-1,3-dihydro-1,3-dimethyl-7-nitro-2H--1,4-benzodiazepin-2-one], in assay [1], the “induction of differentiation (in words)” value is listed as “moderately active” and the EC20 was found to be 86000 nM. Further, in assay [2] (setting [6]), the IC50 came to 1.04 µM. The IC50 in assay [2] (setting [8]) was approximately 1 µM.
Consider `CN1C(=O)CN=C(c2ccc(O)cc2)c2cc(Cl)ccc21` [Compound 2, 7-chloro-1,3-dihydro-5-(4-hydroxyphenyl)-1-methyl-2H--1,4-benzodiazepin-2-one], for which the EC50 in assay [1] was found to be 20000 nM. Besides, in assay [2] (setting [6]), the IC50 came to 0.1 µM.
As to `O=C1CN=C(c2ccccc2Cl)c2cc([N+](=O)[O-])ccc2N1` [clonazepam, reference compound], the “inhibition of tritiated diazepam binding” value in assay [4] (10 μM final concentration) is on record as “did not inhibit diazepam binding”.
For `CN1C(=O)CN=C(c2ccccc2Cl)c2ccccc21` [Compound 15, 5-(2-chlorophenyl)-1-methyl-3H--1,4-benzodiazepin-2(1H)--one], the EC10 in assay [1] was 60000 nM. For the same compound, the IC50 in assay [2] (setting [7]) came out at 0.175 µM.
